Laboratory results reported in US11446354B2, “Method of treatment” (Hexima Limited, priority 2014, dated 2022).
Read-outs that look alike come from different tables or passages of the source.

What was measured:
[1] = type: in vitro ADME, Human; conditions: for Cumulative amount through nail as percent (of applied dose): human
Protocol: Penetration of NaD1 through human nails was measured according to the method of Hui et al. (2002) J Pharm Sci 91(1):189-195. Human toenails were obtained from ScienceCare (USA) and washed with phosphate buffered saline (details, PBS) before being placed on a kimwipe that had been soaked in PBS for 3 h to rehydrate the nail. The nail was then placed in a plastic nail adapter with a dosing area of 0.5×0.5 cm (Permagear, USA) and a cotton bud wetted with 75 microlitres of PBS was placed in the receptor chamber in contact with the underside of the nail.
The cotton bud in contact with the underside of the nail was removed after 24 h and every 24 h following. Protein that had passed through the nail was recovered from the cotton bud by washing twice with 500 μL of 0.1% v/v trifluoroacetic acid. Recovered protein was quantified using RP-HPLC.

[2] = system: Trichophyton rubrum, T. interdigitale, Microsporum fulvum and C. albicans; assay: Inhibition assays summarised across the range of fungal pathogens; type: cell-based; conditions: summary of Table 3
Protocol: (§1) The inhibitory effects of the plant defensins on the growth of Trichophyton rubrum, T. interdigitale, Microsporum fulvum and C. albicans (obtained from the National Mycology Reference Centre, South Australia Pathology at the Women's and Children's Hospital, Adelaide, Australia) are measured essentially as described by Broekaert et al. (1990) FEMS Microbiol Lett 69:55-59. Spores of T. rubrum, T. interdigitale and M. fulvum are isolated from sporulating fungus growing on 1⁄2 strength Sabouraud dextrose agar (SDA). Spores were removed from the plates by the addition of 1⁄2 strength potato dextrose broth (PDB). C. albicans cells are grown in Yeast Peptone Broth (YPD) for 16 h. Spore and cell concentrations are measured using a hemocytometer. Antifungal assays are conducted in 96 well microtitre plates essentially as herein described. Wells are loaded with 20 μL of filter sterilized (0.22 μm syringe filter, Millipore) defensin (10× stock for each final concentration) or water and 80 μL of 5×10^4 spores/mL (T. rubrum, T, interdigitale, M. fulvum) or 5,000 cells/mL (C. albicans) in 1⁄2 strength PDB. The plates are incubated at 30° C. Fungal growth is assayed by measuring optical density at 595 nm ([…]) using a microtitre plate reader (SpectraMax Pro M2; Molecular Devices. Growth is allowed to proceed until the optical density (OD) of the fungus in the absence of any test defensin reached an OD of 0.2. Each test is performed in duplicate.

[3] = system: Human monocytic lymphoma (U937) cells; type: cell-based
Protocol: Human monocytic lymphoma (U937) cells are cultured in RPMI-1640 medium. All culture media are supplemented with 5-10% v/v fetal calf serum, 100 U/ml of penicillin, and 100 μg/ml of streptomycin. Cell lines are cultured at 37° C. in a humidified atmosphere containing 5% v/v CO2. Adherent cell lines are detached from the flask by adding a mixture containing 0.25% v/v trypsin and […]. A flow cytometry-based propidium iodide (PI) uptake assay is performed to analyze the ability of plant defensins to permeabilize U937 cells (essentially as described in Poon et al, 2014). Briefly, cells are suspended to 1×10^6 cells/ml in 0.1% v/v BSA/RPMI-1640 and incubated with plant defensins (10 μM) at 37° C. for 30 min. Samples are added to PBS containing a final concentration of 1 μg/ml PI and placed on ice. Samples are then analyzed immediately using the BD FACSCanto II Flow Cytometer and BD FACSDiva software v6.1.1. The resultant flow cytometry data is analyzed using FlowJo software v8.8.6. Cells are gated appropriately based on forward scatter and side scatter and cell permeabilization is defined by PI-positive staining.

Microsporum fulvum = assay: Antifungal growth inhibition assay, Microsporum fulvum; type: cell-based; conditions: summary of Table 3
Protocol: as §1, with “Wells are loaded with 20 μL of filter sterilized (0.22 μm syringe filter, Millipore) defensin (10× stock for each final concentration) or water and 80 μL of 5×10^4 spores/mL (T. rubrum, T, interdigitale, M. fulvum) or 5,000 cells/mL (C. albicans) in 1⁄2 strength PDB. The plates are incubated at 30° C.” left out

C. albicans = assay: Antifungal growth inhibition assay, C. albicans; type: cell-based, Candida albicans; conditions: summary of Table 3
Protocol: as §1, with “Wells are loaded with 20 μL of filter sterilized (0.22 μm syringe filter, Millipore) defensin (10× stock for each final concentration) or water and 80 μL of 5×10^4 spores/mL (T. rubrum, T, interdigitale, M. fulvum) or 5,000 cells/mL (C. albicans) in 1⁄2 strength PDB. The plates are incubated at 30° C.” left out

Escherichia coli = assay: Inhibition of the growth of Escherichia coli; type: cell-based; conditions: 0.1625-10 μM, 18 hours, 37° C.
Protocol: A single E. coli colony was used to inoculate 5 ml of Luria-Bertani media and grown overnight at 37° C. The following day, the optical density of the culture was measured and the E. coli diluted to an optical density at 600 nm (OD600) of 0.01 in Mueller-Hinton Broth. Diluted E. coli were added to 96-well plates with defensins at concentrations of 10 μM, 5 μM, 2.5 μM, 1.25 μM, 0.625 μM, 0.3125 μM or 0.1625 μM. Plates were read at OD595 to obtain time zero data points. Plates were incubated at 37° C. for 18 hours before reading again at OD595 to assess the amount of E. coli growth.

Cc1cc(C2CCCCC2)n(O)c(=O)c1 [Ciclopirox]
Cumulative amount through nail as percent (of applied dose) ([1]; 3 day, 10 %): 0.03% | Cumulative amount through nail as percent (of applied dose) ([1]; 6 day, 10 %): 0.03% | Cumulative amount through nail as percent (of applied dose) ([1]; 9 day, 10 %): 0.04% | Cumulative amount through nail as percent (of applied dose) ([1]; 12 day, 10 % solution): 0.05% | Cumulative amount through nail as percent (of applied dose) ([1]; 15 day, 10 % solution): 0.06%

C=C1CCN([C@H](C)[C@](O)(Cn2cncn2)c2ccc(F)cc2F)CC1 [Efinaconazole]
Cumulative amount through nail as percent (of applied dose) ([1]; 1 day, 10 % solution): 0.2% | Cumulative amount through nail as percent (of applied dose) ([1]; 2 day, 10 % solution): 0.4% | Cumulative amount through nail as percent (of applied dose) ([1]; 3 day, 10 %): 0.7% | Cumulative amount through nail as percent (of applied dose) ([1]; 4 day, 10 % solution): 0.8% | Cumulative amount through nail as percent (of applied dose) ([1]; 6 day, 10 %): 1.3% | Cumulative amount through nail as percent (of applied dose) ([1]; 9 day, 10 %): 2.0% | Cumulative amount through nail as percent (of applied dose) ([1]; 12 day, 10 % solution): 2.7% | Cumulative amount through nail as percent (of applied dose) ([1]; 15 day, 10 % solution): 3.3%

OB1OCc2cc(F)ccc21 [Tavaborole]
Cumulative amount through nail as percent (of applied dose) ([1]; 3 day, 10 %): 2.0% | Cumulative amount through nail as percent (of applied dose) ([1]; 6 day, 10 %): 3.7% | Cumulative amount through nail as percent (of applied dose) ([1]; 9 day, 10 %): 6.8% | Cumulative amount through nail as percent (of applied dose) ([1]; 12 day, 10 % solution): 10.7% | Cumulative amount through nail as percent (of applied dose) ([1]; 15 day, 10 % solution): 14.9%

HXL001: Class I plant defensin from Zea mays, SEQ ID NO: 4 (RHCLSQSHRFKGLCMSSNNCANVCQTENFPGGECKAEGATRKCFCKKIC; HXL001 Zea mays)
Antifungal activity across the range of fungal pathogens, result in words [2]: did not display any activity at the concentrations tested | U937 cells permeabilized (PI-positive) [3]: less than 2%

HXL002: Class I plant defensin from Triticum aestivum, SEQ ID NO: 5 (RDCLSQSHKFKGACLSSSNCAAVCRTENFPDGECHTHNFARKCFCKRAC; HXL002 Triticum aestivum)
Inhibition of M. fulvum, result in words (Microsporum fulvum): very poor inhibitors | Inhibition of C. albicans, result in words (C. albicans): very poor inhibitors | U937 cells permeabilized (PI-positive) [3]: less than 2%

HXL004: Class I plant defensin from Nicotiana benthamiana, SEQ ID NO: 7 (RTCESQSHRFKGLCFSRSNCASVCHTEGFNGGHCRGFRRRCFCTRHC; HXL004 Nicotiana benthamiana)
Antifungal activity across the range of fungal pathogens, result in words [2]: intermediate activity across the range of pathogens | Nail penetration, result in words [1]: able to penetrate nails faster and more effectively than the active ingredients of current topical onychomycosis therapies | Growth of E. coli in the presence of defensin (Escherichia coli): inhibited the growth of E. coli in a concentration dependent manner | U937 cells permeabilized (PI-positive) [3]: 13%

HXL005: Class I plant defensin from Taraxcum kok-saghyz, SEQ ID NO: 8 (KMCQTTSHAFSCVNDSGCSGSCEKQGFASGKCDGVRRRCTCYKKC; HXL005 Taraxcum kok-saghyz)
Antifungal activity across the range of fungal pathogens, result in words [2]: most effective plant defensins across the range of fungal pathogens | U937 cells permeabilized (PI-positive) [3]: ~25%

HXL009: Class I plant defensin from Zea mays, SEQ ID NO: 9 (TVCMRHNNFYHGPCMSNKDCANSCVQHNLGVGGYCRGKIPFNKECMCTFEC; HXL009 Zea mays)
Antifungal activity across the range of fungal pathogens, result in words [2]: did not display any activity at the concentrations tested | U937 cells permeabilized (PI-positive) [3]: less than 2%

HXL012: Class I plant defensin from Amaranthus retroflexus, SEQ ID NO: 10 (RMCKAPSKLFRGMCGIRDSNCDSVCRAEGMAAGDCHGLRRRCICSRPC; HXL012 Amaranthus retroflexus)
Antifungal activity across the range of fungal pathogens, result in words [2]: intermediate activity across the range of pathogens | Nail penetration, result in words [1]: did not penetrate the nail | U937 cells permeabilized (PI-positive) [3]: less than 2%

HXL013: Class I plant defensin from Glycine max, SEQ ID NO: 11 (KDCLTRRHGFQGRCLFDRQCAHVCRSDGFIGGQCRGPLRKCFCSRPC; HXL013 Glycine max)
Antifungal activity across the range of fungal pathogens, result in words [2]: intermediate activity across the range of pathogens | U937 cells permeabilized (PI-positive) [3]: 5%

HXL015: Class I plant defensin from Oryza sativa, SEQ ID NO: 12 (RHCLSQSHRFKGMCVSSNNCANVCRTESFPDGECKSHGLERKCFCKKVC; HXL015 Oryza sativa)
Antifungal activity across the range of fungal pathogens, result in words [2]: intermediate activity across the range of pathogens

HXL035: Class I plant defensin from Picramnia pentandra, SEQ ID NO: 2 (KVCTKPSKFFKGLCGFDRDCTVACKKEGLASGFCQNKGFFNVVCVCRKPC; HXL035 Picramnia pentandra)
Antifungal activity across the range of fungal pathogens, result in words [2]: most effective plant defensins across the range of fungal pathogens

HXP4: Artificial defensin variant, Loop1B of a Class I defensin replaces that of the Solanaceous Class II defensin, SEQ ID NO: 21 (RECKTESHRFKGPCITKPPCRKACISEKFTDGHCSKILRRCLCTKPC; HXP4)
U937 cells permeabilized (PI-positive) [3]: 13%

LL37: human antimicrobial peptide LL37 used as a control (LLGDFFRKSKEKIGKEFKRIVQRIKDFLRNLVPRTES; Antibacterial peptide LL-37; UniProt P49913 134-170, looked up) [reference compound]
Growth of E. coli in the presence of defensin (Escherichia coli): inhibited the growth of E. coli in a concentration dependent manner

NaD1: Solanaceous Class II plant defensin from Nicotiana alata, SEQ ID NO: 18 (RECKTESNTFPGICITKPPCRKACISEKFTDGHCSKILRRCLCTKPC; NaD1 Nicotiana alata) [reference compound]
Nail penetration, result in words [1]: able to penetrate nails faster and more effectively than the active ingredients of current topical onychomycosis therapies | Growth of E. coli in the presence of defensin (Escherichia coli): did not inhibit growth of E. coli at the concentrations tested | U937 cells permeabilized (PI-positive) [3]: 33%
